Data on one substance can be found in patent US20220202859A1, “CANCER TREATMENT USING CD38 INHIBITOR AND/OR LENALIDOMIDE AND T-CELLS EXPRESSING A CHIMERIC ANTIGEN RECEPTOR” (CRISPR THERAPEUTICS AG, priority 2020, published 2022).

Data set [1] concerns MM.1S tumors. Kind of data set: Daratumumab plus anti-BCMA CAR-T cells in subcutaneous MM.1S xenograft model. The format is in vivo, NOG mice. As to conditions: high dose 2.4×10^6 CAR+ T cells iv day 0; daratumumab 15 mg/kg IP twice weekly. How it is done: The effect of combining daratumumab with anti-BCMA CAR-T cell treatment was tested in a subcutaneous MM.1S xenograft model in immunocompromised NOG mice (NOD.Cg-Prkdc^scidIl2rg^tm1Sug/JicTac). In brief, 5 to 8-week old female NOG mice were individually housed in ventilated microisolator cages and maintained under pathogen-free conditions. The animals each received a subcutaneous inoculation in the right flank of 5×10^6 MM.1S cells in 50% Matrigel. When the mean tumor volume reached 150 mm^3 (approximately 125 to 175 mm^3), the mice were randomized into groups with 5 mice per group. Tested groups included an untreated arm, daratumumab only treatment, anti-BCMA CAR-T cell only treatment (low dose or high dose), and anti-BCMA CAR-T cell (low dose or high dose) in combination with daratumumab. Anti-BCMA CAR-T cells were dosed by intravenous injection of 0.8×10^6 (low dose) or 2.4×10^6 (high dose) CAR^+ T cells at day 0. Daratumumab was dosed IP at 15 mg/kg, twice weekly, starting 2 days prior to anti-BCMA CAR-T cell dosing.
Tumor volume and body weights were measured twice weekly and individual mice were euthanized when their tumor volume reached ≥2000 mm^3.

Data set [2] relates to NK cells. Kind of data set: High daratumumab concentrations in NK/CAR T co-culture: NK cell numbers. The format is cell-based, human. The settings on record: 72 hours. The method, then: (§1) Daratumumab is prescribed in the clinic at a dose of 16 mg/kg (225 μg/mL equivalent). To determine the effect of daratumumab at high concentrations on NK and CAR T cells, anti-BCMA CAR T cells deficient in B2M were co-cultured with purified NK cells that were pre-treated for 60 hours with either human IgGl^-k or daratumumab, each at concentrations of 0.01, 0.1, 1, 10, 100 or 300 μg/mL using methods as described in the previous examples. Flow cytometry was used to assess NK and CAR T cells numbers 72 hours after co-culturing with pre-treated NK cells using methods as described in the previous examples.

For data set [3], the system named is NK cells. Kind of data set: NK cell-mediated CAR T cell lysis after daratumumab pre-treatment of NK cells (DAPI cell-kill assay). The format is cell-based, human. The method, then:
To determine if daratumumab blunts NK-cell mediated CAR T cell lysis, anti-BCMA CAR T cells were co-cultured with purified NK cells that were pre-treated for 60 hours with either daratumumab or isotype control mAb at concentrations of 0.01, 0.1, or 1 μg/mL (FIG. 13A). At the end of the 60 hour pre-treatment period, 50,000 efluor-labelled anti-BCMA CAR T cells were added to the plate containing 150,000 NK cells and Dara/isotype control, and incubated for an additional 24 hours. At the end of the 24-hour co-culture period, anti-BCMA CAR T cell lysis was measured in a cell-kill assay with DAPI.
Specifically, the anti-BCMA CAR T cells were labeled with 5 μM efluor670 (Cat #65-0840-90; ThermoFisher Scientific), washed and incubated in co-cultures with the NK cells at a 3:1 (NK:T) ratio. The co-culture was incubated 24 hr. After incubation, wells were washed and media was replaced with 150 μL of 1× FACS buffer containing a 1:500 dilution of 5 mg/mL DAPI (Molecular Probes) and 12.5 μL of CountBright beads (C36950; ThermoFisher Scientific).
To determine if 10 μg/mL daratumumab blunts NK-cell mediated CAR T cell lysis, anti-BCMA CAR T cells deficient in B2M were co-cultured with purified NK cells that were pre-treated for 60 hours with either daratumumab or isotype control mAb at concentrations of 0.1, 1 or 10 μg/mL. Briefly, NK cells were plated at 50,000 or 150,000 cells per well and treated with daratumumab or the isotype control at concentrations of 0, 0.1, 1 and 10 μg/mL. After 60 hours of treatment of NK cells with daratumumab, the anti-BCMA CAR T cells were labeled with 5 μM efluor670 (Cat #65-0840-90; ThermoFisher Scientific), washed and seeded at 50,000 cells per well in co-cultures with the daratumumab-treated NK cells to make 1:1 or 3:1 (NK:T) ratio. The co-culture was incubated for further 24 hr. […] The cells were analyzed for cell viability by flow cytometry (i.e., viable cells being negative for DAPI staining) Pre-treatment with daratumumab protected anti-BCMA CAR T cell from NK induced cell lysis in a dose-dependent manner (FIGS. 14B-14C). […]

Data set [4] relates to anti-BCMA CAR T cells. Put plainly: Daratumumab on anti-BCMA CAR T cell numbers, frequency and activation. Format: cell-based, human. How it is done: To assess whether daratumumab treatment affects CAR T cells with a disrupted β2M gene, anti-BCMA CAR T cells generated in Example 1 were treated with daratumumab with or without 10% complement. After a 72 hour culture period, anti-BCMA CAR T cell numbers and frequency were measured in a flow cytometry assay as described in Example 3 (FIGS. 12A-12B).
To determine if higher concentrations of daratumumab (10 μg/mL) activates CAR T cells and causes subsequent proliferation or activation-induced cell death, anti-BCMA CAR T cells deficient in B2M were cultured with daratumumab at concentrations of 0.1, 1 or 10 μg/mL for 24 hours. Untreated cells or anti-BCMA CAR T cells deficient in B2M treated with IgG1k isotype control mAb were used as controls.

Data set [5] deals with multiple myeloma. As to conditions: third-line or fourth-line therapy; approximate; cited from earlier work.
The subject of data set [6] is anti-BCMA CAR T cells. Kind of data set: High daratumumab concentrations in NK/CAR T co-culture: CAR T cell numbers. Format: cell-based, human. As to conditions: up to 300 μg/mL; 72 hours. How it is done: as §1
Data set [7] relates to NK cells. Kind of data set: Daratumumab in PBMC culture: NK cell frequency and numbers. The format is cell-based, human. How it is done:
Based on the expression levels of CD38 on NK and T cells, the effect of an anti-CD38 antibody, daratumumab (TAB-236, Creative Biolabs), on such cells was assessed. […] The effect of 10% complement on the cell cultures was also tested. Untreated cells and cells treated with 0.01, 0.1 or 1 μg/mL isotype control mAb (human IgG1k) (cat #403501, BioLegend) were used as controls. After 96 hours of culture, NK and T cell frequency and numbers were measured.

For data set [8] the following is noted: human, in vivo; cited from earlier work.
In data set [9] the test system is T cells. Put plainly: Daratumumab in PBMC culture: T cell frequency and numbers. The format is cell-based, human. The settings on record: 0.01, 0.1 or 1 μg/mL, 96 hours. The method, then:
Based on the expression levels of CD38 on NK and T cells, the effect of an anti-CD38 antibody, daratumumab (TAB-236, Creative Biolabs), on such cells was assessed. PBMCs from a healthy donor were cultured for 96 hours in media containing 0.01, 0.1, or 1 μg/mL of daratumumab. The effect of 10% complement on the cell cultures was also tested. Untreated cells and cells treated with 0.01, 0.1 or 1 μg/mL isotype control mAb (human IgG1k) (cat #403501, BioLegend) were used as controls. After 96 hours of culture, NK and T cell frequency and numbers were measured.

On to “daratumumab: fully human IgGκ monoclonal antibody that targets CD38”, for which, in [1], the “mean tumor volume at day 26” value was 1475 mm^3. In addition, the “decrease in NK cells” value in data set [2] (1 μg/mL) was found to be 29%. The “further decrease in NK cells” value in data set [2] (300 μg/mL) was 38%. Further, in data set [3] (1:1 NK:T ratio, 0.1 μg/mL, 60 hours pre-treatment), the “protective effect against anti-BCMA CAR T cell lysis” value worked out at 91%. In addition, the “protection from NK cell lysis” value in data set [3] (3:1 NK:CAR T ratio, 1 μg/mL, 60 hours pre-treatment) is on record as 85%. The “anti-BCMA CAR T cell lysis by pre-treated NK cells” value in data set [3] (NK cells pre-treated 60 hours at 0.01, 0.1 or 1 μg/mL, 3:1 NK:T, 24 hr co-culture) was “reduced anti-BCMA CAR T cell lysis in a dose-dependent manner”. For the same substance, in data set [4], the “activation of CAR T cells” value is listed as “did not induce activation of CAR T cells”. For the same substance, the “B2M deficient CAR T cell numbers” value in data set [4] (10 μg/mL, 24 hours) is “did not significantly reduce B2M deficient CAR T cells numbers”. The “anti-BCMA CAR T cell numbers or frequency” value in data set [4] (72 hour culture, with or without 10% complement) is reported as “did not affect anti-BCMA CAR T cells numbers or frequency”. Also, the “historical ORR” value in data set [5] is listed as approximately 30%. The “BCMA CAR T cell numbers” value in [6] is recorded as “unaffected by the high daratumumab concentrations”. Moreover, the “reduction of NK cell numbers” value was “approximately 75%” in [7] (1 μg/mL, 96 hours) and approximately 57% in data set [7] (PBMCs from a different donor, 72 hours). The “NK cell frequency and numbers” value in data set [7] (0.01, 0.1 or 1 μg/mL, 96 hours) is “dose-dependent decrease of NK cell frequency and numbers”. Also, the “complement dependence of NK cell reduction” value in data set [7] (addition of 10% complement) is reported as “not complement dependent”. Besides, the “hepatitis B reactivation” value in [8] is 1%. Also, the herpes zoster reactivation in data set [8] is given as 2%. The “T cell numbers or frequency” value in [9] was “did not affect T cell numbers or frequency”.
